Measurements from patent publication US12234476B2, “VCN enhancer compositions and methods of using the same” (bluebird bio, Inc., priority 2016, dated 2025).

Assays:
hCD34+ cells [1] = experiment: Vector copy number (VCN) analysis by qPCR of lentivirus-transduced hCD34+ cells (pooled or individual MethoCult colonies, liquid culture); format: cell-based, human; details: for VCN with increasing concentrations of PGE2: pooled colonies
Protocol: (§1) Washed cells were resuspended in 2 mL Stem Cell Growth Medium (SCGM)+cytokines and transferred to a standard 12-well non-adherent tissue culture plate. Cells were maintained for an additional 6 days in a standard humidified tissue culture incubator (5% CO2) and then subjected to Vector Copy Number (VCN) analysis or single-cell nested PCR to determine transduction efficiency. Both VCN and the single-cell nested PCR assay were performed with qPCR using primers and probes specific to both the vector and an endogenous control gene. VCN was determined by dividing the amount of vector signal by the amount of the endogenous control gene. For the single-cell nested PCR assay, wells that contained a cell positive for the endogenous control gene and wells that contained a marked cell positive for both the vector and the endogenous control gene were enumerated, and the proportion of marked cells, or transduction efficiency, was calculated.
(§2) Washed cells were resuspended in 200 μL SCGM and then transferred to 3 mL aliquots of cytokine-supplemented methylcellulose (for example, Methocult M4434 Classic). 1.1 mL was then transferred to parallel 35-mm tissue culture dishes using a blunt 16-gauge needle. Dishes were maintained in a standard humidified tissue culture incubator for 12-16 days and colonies were scored for size, morphology, and cellular composition. Individual colonies were then picked for subsequent VCN analysis or the contents of an entire 35-mm dish were pooled and then subject to VCN analysis.

hCD34+ cells [2] = experiment: Transduction efficiency / % LVV+ (single-cell nested PCR or individual colony qPCR); format: cell-based, human; details: for transduction efficiency: low-transducing cell lot, individual colony qPCR (Example 11)
Protocol: as §1
After a 7 day liquid culture, cells were collected and single-cell sorted into a 96-well plate. Cells were lysed and subjected to nested PCR to determine presence of LVV in a single cell. Percentage of cells containing both LVV and an endogenous control gene was determined from number of cells containing the endogenous control gene. […] FIG. 5B.
% LVV+: Single cells were isolated by FACS and deposited in 96-well plates containing lysis buffer. Following lysis, the viral-specific sequence from a lentiviral vector encoding a β-globin variant was amplified by PCR along with a control genomic sequence not present in the vector. The PCR products from each single cell were then analyzed by qPCR for presence of genomic sequence, indicating a successfully captured cell. […] Fraction of vector positive cells was then calculated across the entire set of sampled cells. The % LVV+ of the β0/β0 hCD34+ cells was about 77%. FIG. 18, right panel.

[3] = system: hCD34+ cells transplanted into NSG mice; experiment: In vivo VCN of engrafted human cells in bone marrow of NSG mice
Description: HSCs transduced with lentivirus were transplanted into NOD/SCID Gamma (NSG) mice to assess the effect of candidate compounds on viral transduction of human long-term hematopoietic stem cells. Transduced cells were washed and resuspended in phosphate-buffered saline (PBS) and transplanted into the tail vein of sub-myeloablated adult NSG mice, with minimal residual toxicity. Mice were housed in a pathogen-free environment per standard IACUC animal care guidelines. At 4 months post-transplant bone marrow (BM) was harvested from both femurs and analyzed for both VCN and engraftment of human cells by staining with an anti-hCD45 antibody (BD #561864) followed by flow cytometry analysis.
Meta-analysis of NSG transplants with PGE2-treated lentiviral transduced hCD34+ cells from healthy donors (n=3). Human CD34^+ cells were transplanted into sub-myeloablated female NSG mice and bone marrow (BM) was analyzed at 4 months post-transplant. BM was harvested from both femurs of NSG mice and half of the sample was stained with anti-hCD45 for approximately 30 minutes at 4° C. Following incubation, samples were washed and analyzed for human CD45^+ cells via flow analysis using an anti-hCD45 antibody (BD #561864). […] FIG. 1A. The mean VCN of engrafted PGE2-treated hCD34^+ cells was about two-fold higher than the mean VCN of control cells at 4 months post-transplant. FIG. 1B.
A low-transducing cell lot of hCD34^+ cells (VCN of 0.3 under standard conditions) was transduced with lentiviral vector in the presence of protamine sulfate, PGE2, F108 (200 μg/mL or 1000 μg/mL), or the combination of PGE2 and F108 for 24 hours. Following transduction, cells were washed and immediately injected into busulfan-treated NSG mice.
Two months post-transplant, 5 mice/group were sacrificed and BM was harvested and analyzed to evaluate in vivo VCN. The in vivo VCN of engrafted cells transduced in the presence of protamine sulfate was very similar to the graft VCN (˜0.3). in vivo VCN increased approximately 2-fold in PGE2-treated cells. […] FIG. 10C.

[4] = system: hCD34+ cells transplanted into NSG mice; experiment: Engraftment and differentiation of transduced hCD34+ cells in NSG mice (flow cytometry); format: in vivo
Description: HSCs transduced with lentivirus were transplanted into NOD/SCID Gamma (NSG) mice to assess the effect of candidate compounds on viral transduction of human long-term hematopoietic stem cells. […] Mice were housed in a pathogen-free environment per standard IACUC animal care guidelines.
Meta-analysis of NSG transplants with PGE2-treated lentiviral transduced hCD34+ cells from healthy donors (n=3). Human CD34^+ cells were transplanted into sub-myeloablated female NSG mice and bone marrow (BM) was analyzed at 4 months post-transplant. BM was harvested from both femurs of NSG mice and half of the sample was stained with anti-hCD45 for approximately 30 minutes at 4° C. […] FIG. 1A. […] FIG. 1B.
The BM was analyzed for engraftment of hCD34^+ cells. Cells were stained with an antibody cocktail recognizing various cell surface markers (CD45, CD33, CD3, CD19) and analyzed via flow cytometry.

hCD34+ cells [5] = experiment: Colony formation in MethoCult / methylcellulose; format: cell-based, human
Protocol: as §2
Colonies in MethoCult were enumerated using STEMvision (Stemcell Technologies). […] FIG. 3.

[6] = system: long-term HSCs (CD34+CD38-CD45RA-CD90+CD49f+); experiment: GFP lentiviral vector transduction of phenotypic long-term HSCs (flow cytometry); format: cell-based, human; details: GFP LVV; 4 days of culture
Description: Human CD34^+ cells were transduced with a GFP lentiviral vector (LVV) and subsequently cultured in cytokine-containing media. After 4 days of culture, these cells were stained for cell surface markers that phenotypically characterize long-term HSCs (CD34^+CD38^−CD45RA^−CD90^+CD49f^+). […] The proportion of transduced phenotypic long-term HSCs increased to >90% in cells transduced in the presence of F108, with or without the supplementation of PGE2. FIG. 22.

Human CD34+ cells = experiment: ALDP expression by intracellular staining and flow cytometry; format: cell-based; details: MND-ABCD1 LVV; AMN, ALD patients and healthy donors; day 4 or 5; vs PS
Description: Human CD34^+ cells from AMN patients (FIG. 26, panels A-D), ALD patients (FIG. 26, panels E-H), and healthy donors (HD; FIG. 26, panels I-L) were transduced with a lentiviral vector (LVV) lacking a WPRE and comprising an MND promoter operably linked to a polynucleotide encoding ABCD1. […] Cultured cells were stained intracellularly for ALDP expression on day 4 or 5 and analyzed by flow cytometry.

Compound: CCCCC[C@H](O)/C=C/[C@H]1[C@H](O)CC(=O)[C@@H]1C/C=C\CCCC(=O)O [PGE2, prostaglandin E2]
- fold increase in mean VCN compared to protamine sulfate (hCD34+ cells [1]; 24 hour transduction, 14 day MethoCult pooled colonies (Example 6)): 2 fold
- VCN at D7 in cytokine cultured cells and D14 pooled methylcellulose colonies (hCD34+ cells [1]; MND-ABCD1 LVV, AMN, ALD patients and healthy donors): increased VCN
- VCN with increasing concentrations of PGE2 (hCD34+ cells [1]; in the presence of F108, PGE2 increased at least 10-fold): does not result in a dose-dependent increase in VCN
- VCN with increasing concentrations of PGE2 (hCD34+ cells [1]; in the presence of protamine sulfate): dose-dependent increase in VCN
- increase of mean VCN of graft vs protamine sulfate (hCD34+ cells [1]; low-transducing cell lot, 24 hours (Example 11)): approximately 3 fold
- transduction efficiency (hCD34+ cells [2]): ~40%
- mean VCN of engrafted cells vs control cells ([3]; 4 months post-transplant, healthy donors n=3): about two-fold
- increase of in vivo VCN over protamine sulfate ([3]; four months post-transplant): approximately 1.6 fold
- increase of in vivo VCN over protamine sulfate ([3]; two months post-transplant): approximately 2 fold
- effect on hCD34+ engraftment ([4]; 2 and 4 months post-transplant): no statistically significant effect
- proportion of myeloid (CD33+) or lymphoid (CD3+ or CD19+) cells ([4]; 2 and 4 months post-transplant): no significant difference
- percentage of hCD45+ cells in mouse BM (engraftment) ([4]; 4 months post-transplant, PGE2-treated vs control-treated): No statistically significant difference
- colony formation ability of transduced cells (hCD34+ cells [5]; 24 hour transduction, 14 day MethoCult (Example 4)): did not alter the colony formation ability
- proportion of phenotypic long-term HSCs expressing GFP [6]: 45%
- number of cells expressing ALDP (Human CD34+ cells): increased the number of cells expressing ALDP

Compound: protamine sulfate
- VCN of pooled colonies (hCD34+ cells [1]; EF1α-IL2Rγ LVV, MOI 10 or 30): below 1.5
- VCN of pooled colonies (hCD34+ cells [1]; EF1α-TPP1 or MND-TPP1 LVV, MOI 5 or 15): below 1.5
- distribution of individual colony VCNs (hCD34+ cells [1]; F108 and PGE2 at MOI 10, protamine sulfate at MOI 25): 0-6
- % LVV+ colonies (hCD34+ cells [2]; IL2Rγ LVV from PrCL1 or PrCL2): 20-30%
- % LVV+ colonies (hCD34+ cells [2]; IL2Rγ LVV, transiently prepared): 50-60%
- transduction efficiency (hCD34+ cells [2]): ~20%
- in vivo VCN of engrafted cells ([3]; four months post-transplant): ~0.3
- in vivo VCN of engrafted cells ([3]; two months post-transplant): ~0.3
- ability of hematopoietic progenitors to form colonies (erythroid or myeloid) (hCD34+ cells [5]; 8 μg/mL PS, 10 or 1000 μg/mL F108, 1000 μg/mL F108 with 8 μg/mL PS): Neither PS nor F108 significantly affected
- colony formation (hCD34+ cells [5]; IL2Rγ LVV (Example 26)): did not significantly impact colony formation
- proportion of phenotypic long-term HSCs expressing GFP [6]: approximately 30%
